Test results as given in patent publication US20240279176A1, “SUBSTITUTED TRICYCLIC HETEROCYCLIC COMPOUNDS AS METALLO-BETA-LACTAMASE INHIBITORS” (priority 2021, published 2024).
Where two headings read alike, the source gives them in different places.

Columns and labels:
[1] = test system: Klebsiella pneumoniae ATCC BAA-2146; assay: Checkerboard synergy assay in combination with Meropenem; assay type: cell-based; settings: K. pneumoniae ATCC BAA-2146; for Fold reduction in meropenem MIC in the presence of compounds (μg/mL) 8: compound at 8 μg/mL; for Fold reduction in meropenem MIC in the presence of compounds (μg/mL) 16: compound at 16 μg/mL; for Fold reduction in meropenem MIC in the presence of compounds (μg/mL) 32: compound at 32 μg/mL; for Fold reduction in meropenem MIC in the presence of compounds (μg/mL) 4: compound at 4 μg/mL
Text: (§1) The strain included in the study was Klebsiella pneumoniae ATCC BAA-2146 (Himedia®, India) with presence of New Delhi metallo-β-lactamase (NDM-1) gene. The quality control reference strains Escherichia coli ATCC 25922 and Pseudomonas aeruginosa ATCC 27853 were procured from Himedia®, India.
(§2) The fold modulation activity of test compounds, in combination with Imipenem or Meropenem, was checked against Klebsiella pneumoniae ATCC BAA-2146 strain by the broth-microdilution checkerboard synergy assay. The plates contained 5×10^5 CFU/mL bacterial inocula and 2-fold serial dilutions of the antibiotics (128-2 μg/mL) as well as test compounds (32-4 μg/mL) in a total volume of 200 μL of CA-MHB. Dimethyl sulfoxide (DMSO, ≤2.5%) was included as vehicle control. Following 16-18 h of incubation at 37° C., the MICs of antibiotics as well as drug combinations were visually inspected.

[2] = test system: Klebsiella pneumoniae ATCC BAA-2146; assay: Minimum inhibitory concentration (MIC), broth-microdilution (CLSI); assay type: cell-based
Text: as §1
MIC values were identified through broth-microdilution in sterilized 96-well polystyrene flat-bottom microtitre plates (Cole-Parmer®) according to the guideline of the Clinical and Laboratory Standards Institute (CLSI) (CLSI; Methods for dilution antimicrobial susceptibility tests for bacteria that grow aerobically; Clinical Laboratory Standards Institute, M07-A09, 2012). This method involves the use of BBL™ Cation-adjusted Mueller-Hinton II Broth (CA-MHB; BD) and the strain (Klebsiella pneumoniae ATCC BAA-2146) concentration was adjusted to 5×10^5 CFU/mL. After 16-18 h of incubation at various concentrations of Imipenem, Meropenem (Alfa Aesar), or test compounds at 37° C., MIC was defined as the lowest concentration of antibiotic or test compound with no visible growth.

NDM-1 = NDM-1 (Klebsiella pneumoniae, UniProt C7C422); assay: Enzyme activity: IC50 in fluorescence assay with cephalosporin substrate FC5; assay type: biochemical; settings: 50 pM NDM-1, 1.5 μM FC5, 10 min pre-incubation
Procedure: (§3) The Class B beta-lactamases activities were measured in the presence of the test inhibitors in a fluorescence assay against an in-house synthesized fluorescent cephalosporin substrate FC5 (Berkel, et. al. J. Med. Chem. 2013, 56(17), 6945). The enzymes (NDM-1, IMP-1) and the substrate were diluted in 20 mM HEPES, pH 7.4, supplemented with 300 mM NaCl and 10 μM ZnSO4. In the assay, the final concentration of enzyme was 50 pM, and 100 pM for NDM-1, and IMP-1 respectively, and the final concentration of FC5 was 1.5 μM for NDM-1 and 10 μM for IMP-1. The test inhibitors/compounds were dissolved in dimethylsulfoxide (DMSO) and diluted in the assay with assay buffer (20 mM HEPES, pH 7.4, supplemented with 5% DMSO, 300 mM NaCl and 10 μM ZnSO4), resulting in a final concentration range of 0.008 μM to 25 μM. The assays were performed in 96-well microplate (flat bottom, black). The test inhibitors were incubated with the MBL enzyme for 10 min at room temperature, followed by addition the substrate and the fluorescence was recorded immediately (λex 380 nm, λem 460 nm) on a microplate reader. Using the initial velocity data plotted against the inhibitor concentration, the half-maximal inhibitory concentrations were calculated by an IC50 curve-fitting model in GraphPad Prism 9 software.

IMP-1 = IMP-1 (Serratia marcescens, UniProt P52699); assay: as above; assay type: biochemical; settings: 100 pM IMP-1, 10 μM FC5, 10 min pre-incubation
Procedure: as §3

[3] = test system: Klebsiella pneumoniae ATCC BAA-2146; assay: Checkerboard synergy assay in combination with Imipenem; assay type: cell-based; settings: K. pneumoniae ATCC BAA-2146; for Fold reduction in Imipenem MIC in the presence of compounds (μg/mL) 4: compound at 4 μg/mL; for Fold reduction in Imipenem MIC in the presence of compounds (μg/mL) 8: compound at 8 μg/mL; for Fold reduction in Imipenem MIC in the presence of compounds (μg/mL) 16: compound at 16 μg/mL; for Fold reduction in Imipenem MIC in the presence of compounds (μg/mL) 32: compound at 32 μg/mL
Text: as §1, §2

[4] = ATCCBAA2146, compound alone, Imipenem series, K. pneumoniae ATCC BAA-2146, read-out: Intrinsic MIC
[5] = ATCCBAA2146, compound alone, meropenem series, K. pneumoniae ATCC BAA-2146, read-out: Intrinsic MIC

Sequence of NDM-1 (C7C422 29-270, looked up): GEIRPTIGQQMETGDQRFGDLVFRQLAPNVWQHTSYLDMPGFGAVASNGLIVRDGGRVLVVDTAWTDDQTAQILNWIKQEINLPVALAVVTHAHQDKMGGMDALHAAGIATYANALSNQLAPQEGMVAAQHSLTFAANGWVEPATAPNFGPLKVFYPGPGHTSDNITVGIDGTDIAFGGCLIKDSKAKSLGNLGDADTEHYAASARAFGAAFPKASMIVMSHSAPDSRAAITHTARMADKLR
Sequence of IMP-1 (P52699 19-246, looked up, species assumed): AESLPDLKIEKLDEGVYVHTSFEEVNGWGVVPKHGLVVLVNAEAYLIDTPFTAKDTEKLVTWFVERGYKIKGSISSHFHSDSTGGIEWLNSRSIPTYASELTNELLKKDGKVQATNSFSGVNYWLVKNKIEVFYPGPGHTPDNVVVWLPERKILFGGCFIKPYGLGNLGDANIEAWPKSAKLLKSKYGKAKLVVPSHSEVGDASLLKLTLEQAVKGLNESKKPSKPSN

SMILES | Fold reduction in meropenem MIC in the presence of compounds (μg/mL) 8 [1] [fold] | Fold reduction in meropenem MIC in the presence of compounds (μg/mL) 16 [1] [fold] | Fold reduction in meropenem MIC in the presence of compounds (μg/mL) 32 [1] [fold] | MIC [2, 4] [µg/mL] | MIC [2, 5] [µg/mL] | IC50 (NDM-1) [µM] | IC50 (IMP-1) [µM] | Fold reduction in Imipenem MIC in the presence of compounds (μg/mL) 4 [3] [fold] | Fold reduction in Imipenem MIC in the presence of compounds (μg/mL) 8 [3] [fold] | Fold reduction in Imipenem MIC in the presence of compounds (μg/mL) 16 [3] [fold] | Fold reduction in Imipenem MIC in the presence of compounds (μg/mL) 32 [3] [fold] | Fold reduction in meropenem MIC in the presence of compounds (μg/mL) 4 [1] [fold] | MIC ([2]; ATCCBAA2146, antibiotic alone, read-out: MIC of meropenem against Klebsiella pneumoniae ATCC BAA-2146) [µg/mL]
O=C(O)c1[nH]c2c(c1-c1ccccc1)CCc1ccccc1-2 [Example 63, 3-phenyl-4,5-dihydro-1H-benzo[g]indole-2-carboxylic Acid] |  |  |  | > 128 | > 128 | 2.36 | 4.05 | 4 | 4 | 8 | 8 |  | 
C[C@@H](O)[C@H]1C(=O)N2C(C(=O)O)=C(S[C@@H]3CN[C@H](C(=O)N(C)C)C3)[C@H](C)[C@H]12 [meropenem, reference compound] |  |  |  |  |  |  |  |  |  |  |  |  | 128
Cc1ccc(-c2c(C(=O)O)[nH]c3c2CCc2ccccc2-3)c(F)c1 [Example 49, 3-(2-fluoro-4-methylphenyl)-4,5-dihydro-1H-benzo[g]indole-2-carboxylic Acid] | 2 | 4 | 4 | > 128 | > 128 | 0.319 | 2.05 |  |  |  |  | 2 | 
CC1Cc2c([nH]c(C(=O)O)c2-c2cc(F)cc(Cl)c2)-c2ccccc21 (stereo not drawn) [Example 64, 3-(3-chloro-5-fluorophenyl)-5-methyl-4,5-dihydro-1H-benzo[g]indole-2-carboxylic Acid] |  |  |  | > 128 | > 128 | 1.42 | 0.821 | 4 | 4 | 8 | 8 |  | 
O=C(O)c1[nH]c2c(c1-c1cc(Cl)c(Cl)c(Cl)c1)CCc1ccccc1-2 [Example 60, 3-(3,4,5-trichlorophenyl)-4,5-dihydro-1H-benzo[g]indole-2-carboxylic Acid] | 8 | 8 | 8 | > 128 | > 128 |  | 1.56 | 4 | 8 | 8 | 16 | 4 | 
O=C(O)c1[nH]c2c(c1-c1cccc(Cl)c1)CCc1ccccc1-2 [Example 45, 3-(3-chlorophenyl)-4,5-dihydro-1H-benzo[g]indole-2-carboxylic Acid] | 4 | 4 | 8 | > 128 | > 128 | 0.132 |  | 2 | 4 | 8 | 8 | 2 | 

Other lines, results leading:

Fold reduction in meropenem MIC in the presence of compounds (μg/mL) 8 [1] [fold] | Fold reduction in meropenem MIC in the presence of compounds (μg/mL) 16 [1] [fold] | Fold reduction in meropenem MIC in the presence of compounds (μg/mL) 32 [1] [fold] | MIC [2, 4] [µg/mL] | MIC [2, 5] [µg/mL] | IC50 (NDM-1) [µM] | IC50 (IMP-1) [µM] | Fold reduction in Imipenem MIC in the presence of compounds (μg/mL) 4 [3] [fold] | Fold reduction in Imipenem MIC in the presence of compounds (μg/mL) 8 [3] [fold] | Fold reduction in Imipenem MIC in the presence of compounds (μg/mL) 16 [3] [fold] | Fold reduction in Imipenem MIC in the presence of compounds (μg/mL) 32 [3] [fold] | Fold reduction in meropenem MIC in the presence of compounds (μg/mL) 4 [1] [fold] | MIC ([2]; ATCCBAA2146, antibiotic alone, read-out: MIC of meropenem against Klebsiella pneumoniae ATCC BAA-2146) [µg/mL] | SMILES
2 | 2 | 4 | > 128 | > 128 | 0.211 | 25 | 2 | 2 | 4 | 4 |  |  | O=C(O)c1[nH]c2c(c1-c1cccc(Cl)c1Cl)CCc1ccccc1-2 [Example 50, 3-(2,3-dichlorophenyl)-4,5-dihydro-1H-benzo[g]indole-2-carboxylic Acid]
4 | 4 | 16 | > 128 | > 128 | 0.103 | 0.096 | 4 | 8 | 8 | 16 | 4 |  | COc1ccc(F)cc1-c1c(C(=O)O)[nH]c2c1CCc1ccccc1-2 [Example 34, 3-(5-Fluoro-2-methoxyphenyl)-4,5-dihydro-1H-benzo[g]indole-2-carboxylic Acid]
 |  |  | > 128 | > 128 | 0.196 | 3.45 | 4 | 4 | 8 | 8 |  |  | COc1cc(F)cc(-c2c(C(=O)O)[nH]c3c2CCc2ccccc2-3)c1 [Example 62, 3-(3-fluoro-5-methoxyphenyl)-4,5-dihydro-1H-benzo[g]indole-2-carboxylic Acid]
 |  |  | > 128 | > 128 | 0.009 | 0.869 | 4 | 8 | 8 | 16 |  |  | O=C(O)c1[nH]c2c(c1-c1cc(F)cc(Cl)c1)CCc1ccccc1-2 [Example 58, 3-(3-chloro-5-fluorophenyl)-4,5-dihydro-1H-benzo[g]indole-2-carboxylic Acid]
4 | 8 | 8 | > 128 | > 128 | 1.6 |  | 4 | 8 | 8 | 16 | 4 |  | Cc1cc(Cl)cc(-c2c(C(=O)O)[nH]c3c2CCc2ccccc2-3)c1 [Example 57, 3-(3-chloro-5-methylphenyl)-4,5-dihydro-1H-benzo[g]indole-2-carboxylic Acid]
8 | 8 | 16 | > 64 | > 128 | 0.036 | 0.026 |  |  |  |  | 4 |  | O=C(O)c1[nH]c2c(c1-c1cc(Cl)cc(Cl)c1)CCc1ccccc1-2 [Example 2, 3-(3,5-dichlorophenyl)-4,5-dihydro-1H-benzo[g]indole-2-carboxylic Acid]
